How the values were obtained:
colon carcinoma cells = conditions: cited from earlier work
Xenopus embryos = conditions: in vivo; cited from earlier work
[1] = test system: conditional APC mutant mice; conditions: mouse, in vivo; cited from earlier work
β-catenin = conditions: cited from earlier work
DLD-1-cancer cells = conditions: colorectal adenocarcinoma derived; cited from earlier work
KBM5r cells = assay: miR-29 expression and anti-miR silencing in KBM5r cells (qRT-PCR); type: cell-based, human; conditions: imatinib 1 μM, nilotinib 1 μM, ponatinib 0.1 μM; 72 h
Experimental: MicroRNA concentrations were measured using TaqMan miRNA Assays for miR-29a, miR-29b, miR-29c, or RNU48 (Applied Biosystems), and qRT-PCR results were normalized to RNU48 expression.
48 h after transfection, cells were harvested and subjected to total RNA extraction and cDNA synthesis for qRT-PCR.

[2] = test system: human CD34+ CML stem/progenitor cells; assay: Liquid culture of primary human CD34+ CML stem/progenitor cells: cell numbers, BrdU, viability; type: cell-based; conditions: 7 days; anti-CD70 mAb 10 μg/ml, imatinib 1 μM, alone or combined
[3] = test system: CD34+ stem/progenitor cells from healthy donors; assay: Growth and colony formation of CD34+ stem/progenitor cells from BM of healthy donors; type: cell-based, human; conditions: anti-CD70 mAb 10 μg/ml, imatinib 1 μM, alone or combined; 7 or 14 days
[4] = test system: human CD34+ CML stem/progenitor cells; assay: Murine xenograft CML model: human CML cells in BM of NSG mice; type: in vivo
[5] = test system: human CD34+ CML stem/progenitor cells; assay: Expression in human CML cells ex vivo from xenografted NSG mice; conditions: imatinib 50 mg/kg daily, 2 weeks
Source text: (g-l) CD70 (g), SP1 (h), DNMT1 mRNA (i), and miR-29 expression (j-l) (qRT-PCR) in CD34^+ cells. (n-m) Correlation of CD70 expression with the expression of selected Wnt target genes RUNX1 (m) and WISP1 (n) in CD34^+ stem/progenitor cells from newly diagnosed chronic phase CML patients. Expression data are derived from a public repository for microarray data and are available under accession number E-MEXP-480 (EMBL EBI Arrayexpress). […] Statistics: (c-e), one-way ANOVA; (f-l), Student's t test; (m) and (n), Spearman correlation.
(p-r) CD70 and CD27 expression were determined on primary human CML cells. […] After 2 weeks of treatment, mice were euthanized and CML cells were analyzed for the expression of CD70 and CD27 by FACS. […] (p-q) red lines, CD70 and CD27 antibodies; blue lines, respective isotype controls.

in vivo = conditions: NSG, mouse, plasma, oral, 50 mg/kg
[6] = test system: CD34+ stem/progenitor cells from newly diagnosed CML patients; assay: Expression in FACS-sorted CD34+ CML stem/progenitor cells cultured ex vivo; conditions: imatinib 1 μM, 7 days
SD-1 cells = assay: Chou-Talalay drug combination study, growth inhibition of SD-1 cells (cell numbers after 72 h)
[7] = test system: imatinib-resistant KBM5r cells (BCR-ABL1 T315I); assay: CD70, SP1, DNMT1 expression and viability in imatinib-resistant KBM5r cells; type: cell-based, human
Experimental: Specifically, 5×10^4 KBM5r cells were transduced overnight at 37° C. and 5% CO2 with 2×10^5 infectious units of shSP1 or the respective control lentiviral particles having scrambled RNA (Santa Cruz Biotechnology Inc.) in the presence of 5 μg/ml polybrene (Sigma-Aldrich) according to the manufacturer's instructions. After 18 hours, medium was removed, and cells were cultured in medium supplemented with 1 μg/ml puromycin to select for stable expression of shSP1 or scrambled RNA.
KBM5r cells (1×10^5) stably transduced with shSP1 (shSP1), or the respective control scrambled RNA lentiviral particles (scr), were then cultured for 72 hours in the presence of vehicle or ponatinib (po; 0.1 μM). Treated cells were tested for MFI of CD70 protein expression (FACS) (FIG. 1, q), CD70 (FIG. 1, r) and SP1 (Figure, 1 s) mRNA expression (qRT-PCR).
In a first experiment, 1×10^5 KBM5r cells were cultured in the presence of vehicle, ponatinib (po, 0.1 μM), lithium chloride (li, […]), or both in combination (po/li) for 24 h (FIG. 2, A-C). In a second experiment, 1×10^5 KBM5r cells were cultured in the presence of vehicle, ponatinib (po, 0.1 μM), R-Spondin 1 (R, 10 ng/ml), or both in combination (po/R) for 72 h (FIG. 2, D-E).

[8] = test system: CD70 promoter in KBM5r cells; assay: DNA methylation analysis of the CD70 promoter by bisulfite sequencing; type: cell-based, human; conditions: ponatinib 0.1 μM or azacytidine 1 μM, vs vehicle
Experimental: The methylation profile of the SP1 transcription factor binding sites within the KBM5r cell CD70 promoter was analyzed by bisulfite sequencing after treatment of KBM5r cells with either a control, ponatinib (0.1 μM) or azacytidine (1 μM).
Bisulfite conversion of the isolated DNA samples from both KBM5 and KBM5r cells were assessed using the Epitect® Bisulfite Kit (Qiagen) according to the manufacturer's protocol. The promoter region covering binding sites for important transcription factors were selectively amplified using the following primers: forward primer (−227˜−205): 5′-[…]-3′ (SEQ ID NO.: 9); reverse primer (+14˜+35): 5′-[…]-3′(SEQ ID NO.: 10). For the amplification of bisulfite-treated genomic DNA (gDNA), the following PCR conditions were used: 1×: 95° C. for 10 min; 40×: 95° C. for 30 s, 58° C. for 40 s, 72° C. for 1 min; 1×72° C. for 5 min. The PCR cocktail was: 3 μl of DNA (of at least 10 ng/μL DNA for a final concentration of […]) in a 25 μl total volume using 0.5 pmol of each primer, 200 μM dNTPs, 0.2 U Hot Start Taq DNA polymerase, 1.5 mM MgCl2 and the buffer supplied with the enzyme. The amplified promoter region were gel-purified and subjected for fluorescent Sanger sequencing. The relative quantification of the methylated allele (C) versus unmethylated allele (T) was assessed by the QSVAnalyser software. […]

[9] = test system: pancreatic tumor-initiating cells; conditions: cited from earlier work
[10] = test system: xenograft models of breast, lung, pancreatic, and colon cancer; conditions: in vivo; cited from earlier work
[11] = 72 h, imatinib 1 μM, ponatinib 0.1 μM

Molecule: COc1ccc(C2(CNC(=O)c3ccc(NC(=O)c4ccco4)cc3)CCOCC2)cc1 [JW55, N-(4-(((4-(4-methoxyphenyl)tetrahydro-2H-pyran-4-yl)methyl)carbamoyl)phenyl)furan-2-carboxamide]
- canonical WNT signaling (colon carcinoma cells; cells with mutations in APC locus or an allele of β-catenin): inhibited canonical WNT signaling
- AXIN2 and β-catenin levels (colon carcinoma cells): stabilization of AXIN2, a member of the β-catenin destruction complex, followed by increased degradation of β-catenin
- XWNT8-induced axis duplication (Xenopus embryos): reduced XWNT8-induced axis duplication
- tamoxifen-induced polyposis formation [1]: reduced

Molecule: O=c1nc(-c2ccc(C(F)(F)F)cc2)[nH]c2c1CSCC2 [XAV939]
- WNT-stimulated accumulation of β-catenin (β-catenin): blocks WNT-stimulated accumulation of β-catenin
- growth of DLD-1 cancer cells (DLD-1-cancer cells): inhibits growth

Molecule: Cc1ccc(NC(=O)c2ccc(CN3CCN(C)CC3)cc2)cc1Nc1nccc(-c2cccnc2)n1 [imatinib]
- miR-29a, miR-29b, miR-29c expression (KBM5r cells): did not affect miR-29s
- cell proliferation (BrdU) [2]: reduced cell proliferation
- cell viability / cell death [2]: induced cell death
- growth (cell numbers) [2]: inhibited growth and proliferation
- growth and colony formation of healthy donor CD34+ cells [3]: only marginally affected
- frequencies and absolute numbers of CD45+CD33+ leukemia cells and CD34+ CML stem/progenitor cells in BM ([4]; cells of patients 3, 4 and 5, 2 weeks of treatment): reduced cell frequencies and absolute numbers
- eradication of CD34+ CML stem/progenitor cells in BM (NSG mice eradicated of treated) ([4]; patient 4 cells, 2 weeks of treatment): neither imatinib nor anti-CD70 mAb treatment alone eliminated all the CD34+ CML cells
- CD45+CD33+ CML myeloid cell frequencies and absolute numbers in BM ([4]; patient 4 cells, imatinib 50 mg/kg daily p.o., anti-CD70 mAb 10 mg/kg i.p. every 3rd day, 2 weeks): significantly reduced
- CD27 expression [5]: remained unchanged
- CD70 expression on CD34+ CML stem/progenitor cells [5]: specifically increased CD70 expression on CD34+ CML stem/progenitor cells
- DNMT1 and miR-29a, miR-29b, miR-29c expression in CD34+ CML stem/progenitor cells [5]: decreased the expression of DNMT1 and miR-29a, miR-29b, and miR-29c
- SP1 expression in CD34+ CML stem/progenitor cells [5]: up-regulation of SP1
- concentration at 2 weeks (in vivo): ~1000 nM
- CD70 protein expression [6]: increased CD70 protein expression
- Dnmt 1 mRNA expression [6]: down-regulated
- Dnmt3a mRNA expression [6]: down-regulated
- SP1 mRNA expression [6]: increased
- Fa (fraction affected), imatinib (SD-1 cells; imatinib 0.02 μM): 0.001
- Fa (fraction affected), imatinib (SD-1 cells; imatinib 0.04 μM): 0.040
- Fa (fraction affected), imatinib (SD-1 cells; imatinib 0.08 μM): 0.149
- Fa (fraction affected), imatinib (SD-1 cells; imatinib 0.16 μM): 0.201
- Fa (fraction affected), imatinib (SD-1 cells; imatinib 0.32 μM): 0.243
- Fa (fraction affected), imatinib (SD-1 cells; imatinib 0.64 μM): 0.351
- Fa (fraction affected), imatinib (SD-1 cells; imatinib 1.28 μM): 0.432
- Fa (fraction affected), imatinib (SD-1 cells; imatinib 2.55 μM): 0.527
- Fa (fraction affected), imatinib (SD-1 cells; imatinib 5.10 μM): 0.689
- Fa (fraction affected), imatinib (SD-1 cells; imatinib 10.20 μM): 0.791

Molecule: [Cl-].[Li+] [lithium chloride]
- TKI-mediated changes in CD70, SP1, DNMT1 mRNA expression ([7]; lithium chloride 10 μM with ponatinib 0.1 μM, 24 h): restored TKI-mediated changes in gene expression

Molecule: Cc1cn(-c2cc(NC(=O)c3ccc(C)c(Nc4nccc(-c5cccnc5)n4)c3)cc(C(F)(F)F)c2)cn1 [nilotinib]
- miR-29a, miR-29b, miR-29c expression (KBM5r cells): did not affect miR-29s

Molecule: Cc1ccc(C(=O)Nc2ccc(CN3CCN(C)CC3)c(C(F)(F)F)c2)cc1C#Cc1cnc2cccnn12 [ponatinib]
- CD70 mRNA expression [7, 11]: induced
- Dnmt 1 mRNA expression [7, 11]: down-regulated Dnmt1 mRNA
- SP1 mRNA expression [7, 11]: up-regulated SP1
- CD70 protein expression (FACS) ([7]; 72 h, therapeutic concentration (imatinib 1 μM, ponatinib 0.1 μM)): induced CD70 protein expression
- CD70 protein expression (MFI) early after treatment ([7]; ponatinib 0.1 μM, 16 h): already up-regulated after 16 hours
- cell death (Annexin-V/7-AAD FACS) ([7]; ponatinib 0.1 μM, 16 h): did not induce substantial cell death
- CD70 expression in SP1 knockdown (shSP1) KBM5r cells ([7]; ponatinib 0.1 μM, 72 h, vs scrambled control RNA cells): did not up-regulate CD70
- miR-29a, miR-29b, miR-29c expression (KBM5r cells): down-regulation of all three miR-29s
- CD70 promoter DNA methylation [8]: significantly reduced CD70 promoter DNA methylation

B1: OMP-18R5: monoclonal antibody that targets the Frizzled receptors to block association with WNT ligands (antibody, chains of the INN, looked up, V domains shown)
VH: EVQLVESGGGLVQPGGSLRLSCAASGFTFSHYTLSWVRQAPGKGLEWVSVISGDGSYTYYADSVKGRFTISSDNSKNTLYLQMNSLRAEDTAVYYCARNFIKYVFANWGQGTLVTVSS
VL: DIELTQPPSVSVAPGQTARISCSGDNIGSFYVHWYQQKPGQAPVLVIYDKSNRPSGIPERFSGSNSGNTATLTISGTQAEDEADYYCQSYANTLSLVFGGGTKLTVL
- capabilities of pancreatic tumor-initiating cells [9]: potently block the capabilities of pancreatic tumor-initiating cells
- interaction with standard-of-care treatment [10]: synergized with standard-of-care treatment
- tumor growth [10]: significant inhibition of tumor growth

B2: R-Spondin 1: specific Wnt activator (protein, UniProt Q2MKA7 21-263, looked up)
R-spondin-1: SRGIKGKRQRRISAEGSQACAKGCELCSEVNGCLKCSPKLFILLERNDIRQVGVCLPSCPPGYFDARNPDMNKCIKCKIEHCEACFSHNFCTKCKEGLYLHKGRCYPACPEGSSAANGTMECSSPAQCEMSEWSPWGPCSKKQQLCGFRRGSEERTRRVLHAPVGDHAACSDTKETRRCTVRRVPCPEGQKRRKGGQGRRENANRNLARKESKEAGAGSRRRKGQQQQQQQGTVGPLTSAGPA
- TKI-mediated changes in CD70, SP1, DNMT1 mRNA expression ([7]; R-Spondin 1 10 ng/ml with ponatinib 0.1 μM, 72 h): restored TKI-mediated changes in gene expression

Source: patent US10391168B1, “Anti-CD70 combination therapy” (University of Bern, priority 2014, dated 2019)
